Patent US11560373B2, “Compounds and their use as PDE4 activators” (Mironid Limited, priority 2018, dated 2023)

These compounds were tested against T1, PDE4D5 (Homo sapiens, UniProt Q08499) (assay: PDE assay, [3H]cAMP hydrolysis by HEK-PDE4D5 cell lysate cytosol fraction). Settings: 30 μM; mean % increase in counts over basal activity.
T1 construct: stably expressed the full-length human PDE4D5, PDE4B1 and PDE4A4 long isoforms; made in house
Format: biochemical
Method: (§1) HEK 293 cells were transfected with pDEST™ PDE4 expression vectors using Lipofectamine LTX/Plus reagent (Invitrogen) as outlined by the manufacturer and clonal isolates expanded to obtain cell lines that stably expressed the full-length human PDE4D5, PDE4B1 and PDE4A4 long isoforms and the full length human PDE4B2 short isoform. These were called the HEK-PDE4D5, HEK-PDE4B1, HEK-PDE4A4 and HEK-PDE4B2 cell lines, respectively.
(§2) HEK-PDE4D5 cells were seeded out in 100 mm plates and incubated at 37° C. in an atmosphere of 5% CO2, 95% air. Cell lysates were prepared using KHEM buffer [50 mM KCl, 10 mM EGTA, 50 mM HEPES (pH 7.2), 1.92 mM MgCl2].
(§3) To prepare the cell lysates, the 100 mm plates containing the cells were placed on ice and washed with ice-cold PBS (phosphate buffered saline, pH 7.4). KHEM buffer (500 μl) was added to the cells. Cells were then scraped off the plate and triturated using a needle (BD Microlance™ 0.8, 40 mm). The lysed cells were then centrifuged at 2000 rpm for 10 minutes to remove cell debris and the supernatant (cell lysate containing recombinant PDE4D5) was transferred to a fresh tube and kept on ice.
(§4) The cell lysate containing recombinant PDE4D5 was transferred into a centrifuge tube and placed into an ultracentrifuge (BECKMAN COULTER) and spun at high speed (100,000 g) for 30 minutes at 4° C. The cytosol fraction was then collected and its protein amount determined using a BCA protein assay.
(§5) PDE assays were performed in thin walled V-bottomed 96-well plates. The assays were performed at a final concentration of 10 mM Tris/5 mM MgCl2 plus PDE4D5 cell lysate cytosol fraction, containing over-expressed PDE4D5, with and without test compound. The lysate/compound mix were incubated together for 15 min at room temperature on an orbital shaker prior to addition of [^3H] cAMP (final concentration 1 μM [^3H] cAMP; Perkin Elmer) to a final volume of 50 μl per reaction. The reactions were then incubated for 10 minutes at 30° C., terminated by heating for 2 min at 95° C. and allowed to cool. Snake venom (12.5 μl of 1 mg/ml; Crotalus atrox, Sigma) was then added and the plates were agitated and incubated for a further 15 minutes at 30° C. Dowex ion exchange resin (Sigma, chloride form, 200-400 mesh; 200 μl; prepared as a 1:1 Dowex: water stock, thoroughly re-suspended and diluted 2:1 with ethanol) was then added to each well and the plates incubated for 15 min at room temperature on an orbital shaker ensuring sufficient agitation for resin suspension (550 RPM). The reaction mixture was then transferred to a 96 well filter plate (Millipore; […] pore size) and filtered into a receiving 96-well plate to remove the dowex suspension. 30 μL of the filtered solution was then transferred to the wells of an Opti-plate (Perkin Elmer) 96 well assay plate and 120 μl of Microscint 40 scintillation fluid was added. The plate was then placed on an orbital shaker for 10 min at high speed (900 RPM) to mix the sample with scintillation fluid prior to quantitation using a plate based scintillation counter (Top-Count).
(§6) The % increase in counts in the presence of test compound at a particular concentration indicates the % increase in enzyme activity at that concentration.

T1 sequence (Q08499 1-745 isoform Q08499-6): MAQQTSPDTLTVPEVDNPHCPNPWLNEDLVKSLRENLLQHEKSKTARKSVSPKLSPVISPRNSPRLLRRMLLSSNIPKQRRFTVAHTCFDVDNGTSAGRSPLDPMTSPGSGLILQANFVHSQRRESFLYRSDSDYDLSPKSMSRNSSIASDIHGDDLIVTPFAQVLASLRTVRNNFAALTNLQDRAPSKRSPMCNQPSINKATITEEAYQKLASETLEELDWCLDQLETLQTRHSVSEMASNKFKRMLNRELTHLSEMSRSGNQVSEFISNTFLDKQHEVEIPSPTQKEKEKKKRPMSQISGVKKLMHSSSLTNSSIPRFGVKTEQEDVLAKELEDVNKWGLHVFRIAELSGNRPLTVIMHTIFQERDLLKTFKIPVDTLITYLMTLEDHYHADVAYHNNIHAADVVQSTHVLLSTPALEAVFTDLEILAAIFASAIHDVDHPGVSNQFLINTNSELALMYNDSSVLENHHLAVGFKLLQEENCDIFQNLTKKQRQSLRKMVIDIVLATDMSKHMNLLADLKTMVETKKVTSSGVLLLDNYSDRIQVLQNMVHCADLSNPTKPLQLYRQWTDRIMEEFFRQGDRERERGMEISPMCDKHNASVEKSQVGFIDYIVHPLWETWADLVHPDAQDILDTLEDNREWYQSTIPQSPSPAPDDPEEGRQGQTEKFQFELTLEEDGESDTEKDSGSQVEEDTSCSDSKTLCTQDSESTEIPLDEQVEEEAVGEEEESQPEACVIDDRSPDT

| Compound | activation at 30 µM |
| --- | --- |
| CCn1nc(-c2ccc(Cl)c(OC(C)C)c2)nc1CC(=O)NCc1ccc2[nH]ncc2c1 [Example 38, 2-[3-(4-Chloro-3-isopropyloxyphenyl)-1-ethyl-1H-1,2,4-triazol-5-yl]-N-[(1H-indazol-5-yl)methyl]acetamide] | 81.6% |
| CCn1nc(-c2ccc(Cl)c(OC(C)C)c2)nc1CC(=O)N[C@H]1CCOc2ccc(Cl)cc21 [Example 40, N-[(4S)-6-Chloro-3,4-dihydro-2H-1-benzopyran-4-yl]-2-[3-(4-chloro-3-isopropyloxyphenyl)-1-ethyl-1H-1,2,4-triazol-5-yl]acetamide] | 48.5% |
| CCn1nc(-c2ccc(Cl)c(OC(C)C)c2)nc1CC(=O)N[C@H]1CCc2ncccc21 [Example 42, 2-[3(4-Chloro-3-isopropyloxyphenyl)-1-ethyl-1H-1,2,4-triazol-5-yl]-N-[(5S)-5H,6H,7H-cyclopenta[b]pyridin-5-yl]acetamide] | 40% |
| CC(C)Oc1cc(-c2nc(CC(=O)N[C@H]3CCc4ccccc43)n(C)n2)ccc1Cl [Example 44] | 45% |
| CC(C)Oc1cc(-c2nc(CC(=O)NCc3cccc(F)c3)n(C)n2)ccc1Cl [Example 46, 2-[3-(4-Chloro-3-isopropyloxyphenyl)-1-methyl-1H-1,2,4-triazol-5-yl]-N-[(3-fluorophenyl)methyl]acetamide] | 26.2% |
| CC(C)Oc1cc(-c2nc(CC(=O)N[C@H]3CCOc4ccccc43)n(C)n2)ccc1Cl [Example 48, 2-[3-(4-Chloro-3-isopropyloxyphenyl)-1-methyl-1H-1,2,4-triazol-5-yl]-N-[(4S)-3,4-dihydro-2H-1-benzopyran-4-yl]acetamide] | 45.2% |
| CCn1nc(-c2ccc(Cl)c(F)c2)nc1C(F)(F)C(=O)NCc1cc(Cl)cc(Cl)c1 [Example 50, 2-[3-(4-Chloro-3-fluorophenyl)-1-ethyl-1H-1,2,4-triazol-5-yl]-N-[(3,5-dichlorophenyl)methyl]-2,2-difluoroacetamide] | 36.7% |
| CCn1nc(-c2ccc(Cl)c(F)c2)nc1C(F)(F)C(=O)NCc1ccc2[nH]c(C)nc2c1 [Example 52, 2-[3-(4-Chloro-3-fluorophenyl)-1-ethyl-1H-1,2,4-triazol-5-yl]-2,2-difluoro-N-[(2-methyl-1H-1,3-benzimidazol-5-yl)methyl]acetamide] | 73.8% |
| COC(=O)Cn1nc(-c2ccc(Cl)c(F)c2)nc1CC(=O)NCc1cc(Cl)cc(Cl)c1 [Example 54, Methyl 2-[3-(4-chloro-3-fluorophenyl)-5-({[(3,5-dichlorophenyl)methyl]carbamoyl}methyl)-1H-1,2,4-triazol-1-yl]acetate] | 97.2% |
| CCOC(=O)CCCn1nc(-c2ccc(Cl)c(F)c2)nc1CC(=O)NCc1cc(Cl)cc(Cl)c1 [Example 56, Ethyl 4-[3-(4-chloro-3-fluorophenyl)-5-({[(3,5-dichlorophenyl)methyl]carbamoyl}methyl)-1H-1,2,4-triazol-1-yl]butanoate] | 155% |
| CCn1nc(-c2ccc(Cl)c(F)c2)nc1CC(=O)N[C@@H]1c2ccccc2C[C@@H]1O [Example 62, 2-[3-(4-Chloro-3-fluorophenyl)-1-ethyl-1H-1,2,4-triazol-5-yl]-N-[(1R,2S)-2-hydroxy-2,3-dihydro-1H-inden-1-yl]acetamide] | 49.8% |
| CCn1nc(-c2ccc(Cl)c(F)c2)nc1CC(=O)NC1Cc2ccccc2C1 [Example 66, 2-[3-(4-Chloro-3-fluorophenyl)-1-ethyl-1H-1,2,4-triazol-5-yl]-N-(2,3-dihydro-1H-inden-2-yl)acetamide] | 92.1% |
| CCn1nc(-c2ccc(Cl)c(F)c2)nc1CC(=O)N[C@H]1C[C@H](O)c2ccccc21 [Example 68, 2-[3-(4-Chloro-3-fluorophenyl)-1-ethyl-1H-1,2,4-triazol-5-yl]-N-[(1S,3S)-3-hydroxy-2,3-dihydro-1H-inden-1-yl]acetamide] | 51.3% |
| O=C(Cc1nc(-c2ccc(Cl)c(F)c2)nn1CC1CC1)N[C@H]1CCc2ccccc21 [Example 72, 2-[3-(4-Chloro-3-fluorophenyl)-1-(cyclopropylmethyl)-1H-1,2,4-triazol-5-yl]-N-[(1S)-2,3-dihydro-1H-inden-1-yl]acetamide] | 92% |
| CCn1nc(-c2ccc(Cl)c(F)c2)nc1CC(=O)N[C@H]1CCOc2ccccc21 [Example 74, 2-[3-(4-Chloro-3-fluorophenyl)-1-ethyl-1H-1,2,4-triazol-5-yl]-N-[(4S)-3,4-dihydro-2H-1-benzopyran-4-yl]acetamide] | 55.3% |
| O=C(Cc1nc(-c2ccc(Cl)c(F)c2)nn1CC1CC1)N[C@H]1CCOc2ccc(Cl)cc21 [Example 78, N-[(4S)-6-Chloro-3,4-dihydro-2H-1-benzopyran-4-yl]-2-[3-(4-chloro-3-fluorophenyl)-1-(cyclopropylmethyl)-1H-1,2,4-triazol-5-yl]acetamide] | 79.1% |

The next lines start with the values.

| activation at 30 µM | Compound |
| --- | --- |
| 104% | CCn1nc(-c2ccc(Cl)c(OC)c2)nc1CC(=O)NCc1cc(Cl)cc(Cl)c1 [Example 29, 2-[3-(4-Chloro-3-methoxyphenyl)-1-ethyl-1H-1,2,4-triazol-5-yl]-N-[(3,5-dichlorophenyl)methyl]acetamide] |
| 82.3% | CCn1nc(-c2ccc(Cl)c(OCCOC)c2)nc1CC(=O)NCc1cc(Cl)cc(Cl)c1 [Example 33, 2-{3-[4-Chloro-3-(2-methoxyethoxy)phenyl]-1-ethyl-1H-1,2,4-triazol-5-yl}-N-[(3,5-dichlorophenyl)methyl]acetamide] |
| 128% | O=C(O)CCn1nc(-c2ccc(Cl)c(F)c2)nc1CC(=O)NCc1cc(Cl)cc(Cl)c1 [Example 58, 3-[3-(4-Chloro-3-fluorophenyl)-5-({[(3,5-dichlorophenyl)methyl]carbamoyl}methyl)-1H-1,2,4-triazol-1-yl]propanoic acid] |
| 58.9% | CCc1cc(CNC(=O)Cc2nc(-c3ccc(Cl)c(F)c3)nn2CC)cc(CC)n1 [Example 80, 2-[3-(4-Chloro-3-fluorophenyl)-1-ethyl-1H-1,2,4-triazol-5-yl]-N-[(2,6-diethylpyridin-4-yl)methyl]acetamide] |
| 34.3% | CCn1nc(-c2ccc(Cl)c(OC(C)C)c2)nc1CC(=O)NCc1cc(C)cc(C)n1 [Example 82, 2-[3-(4-Chloro-3-isopropyloxyphenyl)-1-ethyl-1H-1,2,4-triazol-5-yl]-N-[(4,6-dimethylpyridin-2-yl)methyl]acetamide] |
| 89.6% | CCn1nc(-c2ccc(Cl)c(F)c2)nc1CC(=O)NCc1ccnc(C(F)(F)F)c1 [Example 83, 2-[3-(4-Chloro-3-fluorophenyl)-1-ethyl-1H-1,2,4-triazol-5-yl]-N-{[2-(trifluoromethyl)pyridin-4-yl]methyl}acetamide] |
| 32.2% | CCn1nc(-c2ccc(Cl)c(F)c2)nc1CC(=O)NCc1ccnc(C(F)F)c1 [Example 84, 2-[3-(4-Chloro-3-fluorophenyl)-1-ethyl-1H-1,2,4-triazol-5-yl]-N-{[2-(difluoromethyl)pyridin-4-yl]methyl}acetamide] |
| 37.3% | CCn1nc(-c2ccc(Cl)c(F)c2)nc1CC(=O)NC1(c2cc(C)nc(C)c2)CC1 [Example 86, 2-[3-(4-Chloro-3-fluorophenyl)-1-ethyl-1H-1,2,4-triazol-5-yl]-N-[1-(2,6-dimethylpyridin-4-yl)cyclopropyl]acetamide] |

These compounds were tested against T2, PDE4B2 (Homo sapiens, UniProt Q07343) (assay: PDE assay, [3H]cAMP hydrolysis by HEK-PDE4B2 cell lysate cytosol fraction (short form)). Settings: mean % increase in counts over basal activity.
T2 construct: the full length human PDE4B2 short isoform; made in house
T2 sequence (Q07343 1-564 isoform Q07343-2): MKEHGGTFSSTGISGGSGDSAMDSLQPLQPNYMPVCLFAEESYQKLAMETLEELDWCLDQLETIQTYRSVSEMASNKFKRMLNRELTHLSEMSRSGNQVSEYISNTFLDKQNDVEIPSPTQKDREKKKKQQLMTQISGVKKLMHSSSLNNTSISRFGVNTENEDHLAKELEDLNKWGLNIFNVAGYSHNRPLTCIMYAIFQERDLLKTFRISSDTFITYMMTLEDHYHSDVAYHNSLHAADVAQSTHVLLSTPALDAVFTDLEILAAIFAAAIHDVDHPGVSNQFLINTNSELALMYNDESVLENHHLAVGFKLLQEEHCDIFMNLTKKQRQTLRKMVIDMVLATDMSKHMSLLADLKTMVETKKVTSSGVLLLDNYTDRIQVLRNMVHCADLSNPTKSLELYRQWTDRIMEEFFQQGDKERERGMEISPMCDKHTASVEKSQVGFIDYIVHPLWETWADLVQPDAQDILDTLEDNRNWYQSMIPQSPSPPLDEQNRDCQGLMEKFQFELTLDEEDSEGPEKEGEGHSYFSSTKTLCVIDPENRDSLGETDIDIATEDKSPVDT
Format: biochemical
Method: as §1, §2, §3, §4, §5, §6

| Compound | % increase in PDE4B2 activity at 30 μM |
| --- | --- |
| CCn1nc(-c2ccc(Cl)c(OC)c2)nc1CC(=O)NCc1cc(Cl)cc(Cl)c1 [Example 29, 2-[3-(4-Chloro-3-methoxyphenyl)-1-ethyl-1H-1,2,4-triazol-5-yl]-N-[(3,5-dichlorophenyl)methyl]acetamide] | 3.4% |
| CCn1nc(-c2ccc(Cl)c(OCCOC)c2)nc1CC(=O)NCc1cc(Cl)cc(Cl)c1 [Example 33, 2-{3-[4-Chloro-3-(2-methoxyethoxy)phenyl]-1-ethyl-1H-1,2,4-triazol-5-yl}-N-[(3,5-dichlorophenyl)methyl]acetamide] | −9.4% |
| CCn1nc(-c2ccc(Cl)c(OC(C)C)c2)nc1CC(=O)N[C@H]1CCOc2ccc(Cl)cc21 [Example 40, N-[(4S)-6-Chloro-3,4-dihydro-2H-1-benzopyran-4-yl]-2-[3-(4-chloro-3-isopropyloxyphenyl)-1-ethyl-1H-1,2,4-triazol-5-yl]acetamide] | 1.6% |
